Reference: US20230321187A1, “OCTOPUS-DERIVED PEPTIDE OCTOPROMYCIN HAVING ANTIBACTERIAL AND ANTI-BIOFILM ACTIVITY AGAINST ACINETOBACTER BAUMANNII” (priority 2020, published 2023)
Entries after “also recorded” stand apart in the source; their conditions may differ. Where no end group is shown, it is not given here.

Key:
[1] = tested on: A. baumannii; assay: Propidium iodide (PI) uptake / FDA staining membrane permeability assay (CLSM); assay type: cell-based, Acinetobacter baumannii
Protocol: Propidium iodide (PI) uptake assay was performed to evaluate an effect of octopromycin on association with the membrane permeability and apoptosis of A. baumannii. The PI was a red fluorescent nuclear and chromosome counter dye that indicated changes in cell membrane permeability, and was used to detect the presence of dead cells and simultaneously observe live cells by observing green fluorescence (FDA). A. baumannii treated with octopromycin at MIC; 50 μg/mL and MBC; 200 μg/mL levels and control cell suspensions were centrifuged (5000 rpm for 2 minutes), washed with PBS and the pellets were suspended in PBS. Subsequently, the cells were cultured with 20 μg/mL of PI (Sigma Aldrich, USA) and 8 μg/mL of FDA (Sigma Aldrich, USA) at 25° C. for 30 minutes in the dark, and finally, the remaining dye was washed with PBS. Finally, a 5 μL drop of each suspension was placed on a cover slip and fluorescence images were observed using a CLSM integrated with a scan head on an Axiovert 200M inverted microscope (Carl Zeiss, Germany).

[2] = tested on: A. baumannii; assay: H2DCF-DA assay of ROS production; assay type: cell-based, Acinetobacter baumannii; settings: MIC (50 μg/mL) and MBC (200 μg/mL), 10 hours
Protocol: To further examine a mode of action of octopromycin related to endogenous ROS production in A. baumannii by octopromycin, H2DCF-DA assay was performed. The accumulation of ROS in A. baumannii was quantified using fluorescent probe carboxy-H2DCF-DA (Invitrogen, USA). An A. baumannii culture solution (OD-0.25, 5×10^6 CFU/mL) was treated with octopromycin (MIC; 50 μg/mL and MBC; 200 μg/mL) and cultured at 25° C. for 10 hours, and then, cells were harvested by centrifugation at 5000 rpm for 2 minutes. To detect ROS levels, the cells were stained with H2DCF-DA (100 μg/mL) and cultured at room temperature (24±1° C.) for 30 minutes and then centrifuged at 5000 rpm for 2 minutes. The cells were washed with ×1 PBS and dichloro-fluorescein (DCF) fluorescence was measured using CLSM (LSMS Live Configuration Variotwo VRGB, Zeiss, Germany) at an excitation wavelength of 488 nm and an emission wavelength of 535 nm.

[3] = tested on: A. baumannii biofilm; assay: Eradication of already formed biofilm (crystal violet staining); assay type: cell-based, Acinetobacter baumannii; settings: 24 hours after treatment
Protocol: Next, the effect of octopromycin on biofilm eradication in A. baumannii was confirmed. To measure the eradication effect of the already formed biofilm, 100 μL of A. baumannii (5×10^5 CFU/mL) was cultured in TSB for 24 hours. The culture medium was removed and the wells were carefully washed with PBS to eradicate planktonic bacteria. The wells were added with octopromycin (50 μg/mL (MIC) and 200 μg/mL (MBC)) and further cultured for 24 hours. The biofilm was stained with crystal violet for 30 minutes, washed three times with PBS, and dissolved in 95% ethanol, and the absorbance was measured at 495 nm using a microplate reader (Bio-Rad, USA).

[4] = MTT cytotoxicity assay in HEK293 cells; assay type: cell-based, human; settings: HEK293T cells
Protocol: (§1) To measure the cytotoxicity of octopromycin on HEK293T (American Type Culture Collection ATCC-11268) and Raw 264.7 cells, the cells were treated with octopromycin and cell viability was evaluated. The cells were harvested, counted and seeded at a density of […] per well in a 96-well plate and cultured for 24 hours at 37° C. and 5% CO2. The cells were treated with different concentrations of octopromycin (0 to 800 μg/mL) and cultured for 24 hours. After culturing, the culture medium was replaced with a fresh medium, and 10 μL of MTT (5 mg/mL) was added to each well and incubated in a CO2 incubator for 4 hours. The formed formazan crystals were dissolved in 50 μL of DMSO and absorbance was measured at 570 nm using a microplate reader (Bio-Rad Laboratories, Inc, USA). Cells treated with the medium (control) were considered as 100% viability (control group), and current viability was normalized and calculated for the untreated control group.

[5] = tested on: HEK293T cells; assay: MTT cytotoxicity assay in HEK293 cells; assay type: cell-based, human
Protocol: as §1

[6] = MTT cytotoxicity assay in Raw 264.7 cells; assay type: cell-based; settings: mouse, Raw 264.7 cells
Protocol: as §1

[7] = tested on: Raw 264.7 cells; assay: MTT cytotoxicity assay in Raw 264.7 cells; assay type: cell-based
Protocol: as §1

[8] = tested on: zebrafish embryos; assay: Zebrafish embryo toxicity (mortality and teratogenicity); assay type: in vivo
Protocol: Wild-type (AB) adult zebrafish was maintained in an automated water circulation system at 28° C. under a photoperiod of 14 h (light): 10 h (dark). After zebrafish (to 4 months of age) was mated, embryos were collected at a 1 hours post fertilization (1 hpf) stage and rinsed with embryo water. First, the viability of newly fertilized embryos was identified under a stereoscopic microscope (Nikon, SMZ1000, Japan) before use in experiments. To determine toxicity levels at 24, 48, 72, and 96 hours after exposure, embryos at stages 1-2 hpf were exposed to various concentrations of octopromycin (0 to 8 μg/mL) for 96 hours.
In addition, to evaluate in vivo toxicity, the cumulative mortality of developing zebrafish embryos for 96 hours was calculated at octopromycin exposure (0, 0.25, 0.50, 1.00, 2.00, 4.00, and 8.00 μg/mL). […] However, concentration-dependent mortality patterns occurred by an increase in octopromycin concentration.

## RRLIRTDTGPIIYDYFKDQLLKKGMVILRESMKNLKGM [octopromycin]
[1]; MBC (200 μg/mL)
  membrane permeability (PI/FDA staining): almost all A. baumannii cells showed red fluorescence signals
[1]; MIC (50 μg/mL)
  membrane permeability (PI/FDA staining): more PI-stained red fluorescent cells
[2]
  ROS level: increased in a concentration-dependent manner; also recorded: increased the production of reactive oxygen species
[3]; MBC (200 μg/mL)
  reduction in biofilm (eradication): 64.2%
[3]; MIC (50 μg/mL)
  reduction in biofilm (eradication): 64.0%
[4]; human embryonic kidney 293T, concentration not given, read-out: cells alive
  viability at 24 h: ≥ 85%
[4]; human, HEK293, 400 μg/mL, 24 hours, read-out: cell viability
  viability at 24 h, 400 µg/mL: 85%
[5]; HEK293, >400 μg/mL
  cell viability: significantly reduced
[5]; HEK293, MBC level (200 μg/mL)
  toxic effect: no toxic effect
[6]; Raw 264.7, 400 μg/mL, 24 hours, read-out: cell viability
  viability at 24 h, 400 µg/mL: 80%
[6]; Raw 264.7, concentration not stated, read-out: cells alive
  viability at 24 h: ≥ 85%
[7]; Raw 264.7, >400 μg/mL
  cell viability: significantly reduced
[7]; Raw 264.7, MBC level (200 μg/mL)
  toxic effect: no toxic effect
[8]; 0.25 μg/mL, 96 hours exposure
  embryo mortality: no embryo mortality
[8]; 4 μg/mL
  toxicity to zebrafish embryos: not toxic
[8]; 8.0 μg/mL, 24 hpe
  embryo mortality: 100%
[8]; zebrafish embryos, no abnormal appearance
  maximum non-lethal concentration: 4 µg/mL
